{"source": "PubChem BioAssay AID1259407", "about": "(Chemical Carcinogenesis Research Information System (CCRIS), 2018)", "system": "CCRIS mutagenicity, Ames/micronucleus/aberration tests", "test": "CCRIS mutagenicity studies", "note": "Active and inactive are the calls of the source. No rule for the calls is given here.", "data": [{"compound": "CCOC(=O)NCCOc1ccc(Oc2ccccc2)cc1", "values": [{"measurement": "mutagenic call", "setting": "Test System: Ames Salmonella typhimurium, Strain/Indicator: TA97, Metabolic Activation: None, Method: Plate incorporation", "result": "inactive; negative"}, {"measurement": "mutagenic call", "setting": "Test System: Ames Salmonella typhimurium, Strain/Indicator: TA97, Metabolic Activation: None, Method: Preincubation", "result": "inactive; negative"}, {"measurement": "mutagenic call", "setting": "Test System: Ames Salmonella typhimurium, Strain/Indicator: TA97, Metabolic Activation: Rat, Liver, S-9, Phenobarbital and beta-naphthoflavone, Method: Plate incorporation", "result": "inactive; negative"}, {"measurement": "mutagenic call", "setting": "Test System: Ames Salmonella typhimurium, Strain/Indicator: TA97, Metabolic Activation: Rat, Liver, S-9, Phenobarbital and beta-naphthoflavone, Method: Preincubation", "result": "inactive; negative"}, {"measurement": "mutagenic call", "setting": "Test System: Ames Salmonella typhimurium, Strain/Indicator: TA98, Metabolic Activation: None, Method: Plate incorporation", "result": "inactive; negative"}, {"measurement": "mutagenic call", "setting": "Test System: Ames Salmonella typhimurium, Strain/Indicator: TA98, Metabolic Activation: None, Method: Preincubation", "result": "inactive; negative"}, {"measurement": "mutagenic call", "setting": "Test System: Ames Salmonella typhimurium, Strain/Indicator: TA98, Metabolic Activation: Rat, Liver, S-9, Phenobarbital and beta-naphthoflavone, Method: Plate incorporation", "result": "inactive; negative"}, {"measurement": "mutagenic call", "setting": "Test System: Ames Salmonella typhimurium, Strain/Indicator: TA98, Metabolic Activation: Rat, Liver, S-9, Phenobarbital and beta-naphthoflavone, Method: Preincubation", "result": "inactive; negative"}, {"measurement": "mutagenic call", "setting": "Test System: Ames Salmonella typhimurium, Strain/Indicator: TA100, Metabolic Activation: None, Method: Plate incorporation", "result": "inactive; negative"}, {"measurement": "mutagenic call", "setting": "Test System: Ames Salmonella typhimurium, Strain/Indicator: TA100, Metabolic Activation: None, Method: Preincubation", "result": "inactive; negative"}, {"measurement": "mutagenic call", "setting": "Test System: Ames Salmonella typhimurium, Strain/Indicator: TA100, Metabolic Activation: Rat, Liver, S-9, Phenobarbital and beta-naphthoflavone, Method: Plate incorporation", "result": "inactive; negative"}, {"measurement": "mutagenic call", "setting": "Test System: Ames Salmonella typhimurium, Strain/Indicator: TA100, Metabolic Activation: Rat, Liver, S-9, Phenobarbital and beta-naphthoflavone, Method: Preincubation", "result": "inactive; negative"}, {"measurement": "mutagenic call", "setting": "Test System: Ames Salmonella typhimurium, Strain/Indicator: TA102, Metabolic Activation: None, Method: Plate incorporation", "result": "inactive; negative"}, {"measurement": "mutagenic call", "setting": "Test System: Ames Salmonella typhimurium, Strain/Indicator: TA102, Metabolic Activation: None, Method: Preincubation", "result": "inactive; negative"}, {"measurement": "mutagenic call", "setting": "Test System: Ames Salmonella typhimurium, Strain/Indicator: TA102, Metabolic Activation: Rat, Liver, S-9, Phenobarbital and beta-naphthoflavone, Method: Plate incorporation", "result": "inactive; negative"}, {"measurement": "mutagenic call", "setting": "Test System: Ames Salmonella typhimurium, Strain/Indicator: TA102, Metabolic Activation: Rat, Liver, S-9, Phenobarbital and beta-naphthoflavone, Method: Preincubation", "result": "inactive; negative"}, {"measurement": "mutagenic call", "setting": "Test System: Ames Salmonella typhimurium, Strain/Indicator: TA1535, Metabolic Activation: None, Method: Plate incorporation", "result": "inactive; negative"}, {"measurement": "mutagenic call", "setting": "Test System: Ames Salmonella typhimurium, Strain/Indicator: TA1535, Metabolic Activation: None, Method: Preincubation", "result": "inactive; negative"}, {"measurement": "mutagenic call", "setting": "Test System: Ames Salmonella typhimurium, Strain/Indicator: TA1535, Metabolic Activation: Rat, Liver, S-9, Phenobarbital and beta-naphthoflavone, Method: Plate incorporation", "result": "inactive; negative"}, {"measurement": "mutagenic call", "setting": "Test System: Ames Salmonella typhimurium, Strain/Indicator: TA1535, Metabolic Activation: Rat, Liver, S-9, Phenobarbital and beta-naphthoflavone, Method: Preincubation", "result": "inactive; negative"}, {"measurement": "mutagenic call", "setting": "Test System: Ames Salmonella typhimurium, Strain/Indicator: TA1537, Metabolic Activation: None, Method: Plate incorporation", "result": "inactive; negative"}, {"measurement": "mutagenic call", "setting": "Test System: Ames Salmonella typhimurium, Strain/Indicator: TA1537, Metabolic Activation: None, Method: Preincubation", "result": "inactive; negative"}, {"measurement": "mutagenic call", "setting": "Test System: Ames Salmonella typhimurium, Strain/Indicator: TA1537, Metabolic Activation: Rat, Liver, S-9, Phenobarbital and beta-naphthoflavone, Method: Plate incorporation", "result": "inactive; negative"}, {"measurement": "mutagenic call", "setting": "Test System: Ames Salmonella typhimurium, Strain/Indicator: TA1537, Metabolic Activation: Rat, Liver, S-9, Phenobarbital and beta-naphthoflavone, Method: Preincubation", "result": "inactive; negative"}, {"measurement": "mutagenic call", "setting": "Test System: Ames Salmonella typhimurium, Strain/Indicator: TA1538, Metabolic Activation: None, Method: Plate incorporation", "result": "inactive; negative"}, {"measurement": "mutagenic call", "setting": "Test System: Ames Salmonella typhimurium, Strain/Indicator: TA1538, Metabolic Activation: None, Method: Preincubation", "result": "inactive; negative"}, {"measurement": "mutagenic call", "setting": "Test System: Ames Salmonella typhimurium, Strain/Indicator: TA1538, Metabolic Activation: Rat, Liver, S-9, Phenobarbital and beta-naphthoflavone, Method: Plate incorporation", "result": "inactive; negative"}, {"measurement": "mutagenic call", "setting": "Test System: Ames Salmonella typhimurium, Strain/Indicator: TA1538, Metabolic Activation: Rat, Liver, S-9, Phenobarbital and beta-naphthoflavone, Method: Preincubation", "result": "inactive; negative"}]}, {"compound": "O=C1OC(O)C(C(Br)Br)=C1Br", "note": "(configuration not stated)", "values": [{"measurement": "mutagenic call", "setting": "Test System: AMES SALMONELLA TYPHIMURIUM, Strain/Indicator: TA98, Metabolic Activation: NONE, Method: STANDARD PLATE", "result": "active; positive"}, {"measurement": "mutagenic call", "setting": "Test System: AMES SALMONELLA TYPHIMURIUM, Strain/Indicator: TA98, Metabolic Activation: RAT LIVER S-9, AROCLOR 1254, Method: STANDARD PLATE", "result": "inactive; negative"}, {"measurement": "mutagenic call", "setting": "Test System: AMES SALMONELLA TYPHIMURIUM, Strain/Indicator: TA100, Metabolic Activation: NONE, Method: STANDARD PLATE", "result": "active; positive"}, {"measurement": "mutagenic call", "setting": "Test System: AMES SALMONELLA TYPHIMURIUM, Strain/Indicator: TA100, Metabolic Activation: RAT LIVER S-9, AROCLOR 1254, Method: STANDARD PLATE", "result": "inactive; negative"}]}]}
